Test results as given in paper PMC5108240 (ACS infectious diseases, 2016).
In brackets after ≈: the same amount, converted by molar mass.

Experiments:
[1] = test system: K. pneumoniae (ATCC 10031); type: cell-based, Klebsiella pneumoniae
[2] = test system: K. pneumoniae (ATCC 10031); experiment: microbe, parasite or virus in culture; type: cell-based; details: Klebsiella pneumoniae, ATCC10031, read-out: MIC in the presence of thymidine
[3] = target: K. pneumoniae DHFR (Klebsiella pneumoniae, UniProt A6T4I4); experiment: biochemical
[4] = test system: E. coli (ATCC 25922); type: cell-based

COc1cc(Cc2cnc(N)nc2N)cc(OC)c1OC [TMP, trimethoprim]
MIC Kp [1]: 0.0781 µg/mL (≈ 0.269 µM) | MIC [2]: > 20 µg/mL | IC50 [3]: 106 ± 6 nM | Time-kill: bacteriostatic or bactericidal [4]: bacteriostatic
